Experimental data reported in patent US11135252B2, “Probiotic therapies for developmental disorders and other neurological disorders” (Baylor College of Medicine, priority 2016, dated 2021).
Entries after “also recorded” stand apart in the source; their conditions may differ.

Columns and labels:
MHFD offspring = experiment: Reciprocal social interaction test in MHFD offspring; assay type: in vivo, mice
Source text: Animal care and experimental procedures were approved by Baylor College of Medicine's Institutional Animal Care and Use Committee in accordance with all guidelines set forth by the U.S. National Institutes of Health. Reciprocal Social Interaction. Mice were placed in a 25×25×25 cm Plexiglass arena, to which they had not been previously habituated, with either a familiar (cage-mate) or stranger age- and sex-matched conspecific. In all experiments, paired mice were matched for maternal diet, colonization source, and/or treatment. We recorded the time a pair of mice engaged in social interaction (close following, touching, nose-to-nose sniffing, nose-to-anus sniffing, and/or crawling over/under each other). The human observer was blind to maternal diet and/or treatment group. Social behavior was analyzed with AnyMaze automated software. Lactobacillus reuteri MM4-1A (ATCC-PTA-6475) and Lactobacillus johnsonii (ATCC 33200) were cultured anaerobically in MRS broth in a 90% N2, 5% CO2, 5% H2 environment. L. reuteri was heat-killed by keeping the bacteria at 80° C. for 20 minutes (Wang et al., 2010). Bacterial viability was assessed by plating and the efficacy of the heat-kill procedure was confirmed by the absence of colony growth following plating. Cultures were centrifuged, washed, and resuspended in anaerobic solution (PBS) and frozen at −80° C. until use. PBS, live or heat-killed L. reuteri were added to the drinking water, which was changed daily to minimize dosage variability. Whereas the experimental group received live bacteria, one control group received identically prepared cultures of heat-killed bacteria. A second group of control mice received water treated with PBS alone. Live and heat-killed L. reuteri were supplied at a dosage of 1×10^8 organisms/mouse/day continuously in drinking water. Mice consumed the treated water ad libitum over the treatment period. The treated drinking water for each group was replaced daily two hours prior to the onset of the dark cycle to minimize variation in microbial exposure. Behavioral assays were initiated after 4-weeks of L. reuteri or control treatment. The protocol of the L. johnsonii preparation and administration matched the L. reuteri protocol. Fecal samples for sequencing and tissue used in the immunofluorescence studies were collected at the end of the treatment. Oxytocin was obtained from Tocris Bioscience (product 1910) and solubilized in 10% dimethyl sulfoxide (DMSO) in PBS. 10% DMSO in PBS was used as the vehicle control. Mice received oxytocin intranasally (at approximately 200 μg/kg) thirty minutes prior to behavior. 1.25 μl of oxytocin or vehicle solution was injected into each nostril from P10 pipette. Oxytocin dose was selected according to dosages reported to rescue social behavior in genetic models phenotypically expressing ASD-like behaviors (Penagarikano et al., 2015).

VTA DA neurons = experiment: Social interaction-induced LTP (AMPAR/NMDAR ratio) in VTA DA neurons of MHFD offspring; assay type: in vivo, mice; conditions: for stranger interaction-evoked LTP in the VTA (AMPAR/NMDAR ratio): bacteria in drinking water, 24 hours after 10 min reciprocal interaction
Source text: Brain regions responding to naturally rewarding stimuli, including the ventral tegmental area (VTA) and the nucleus accumbens (NAc), are crucially involved in social behaviors (Dolen et al., 2013; Gunaydin et al., 2014; Huang and Hessler, 2008). In addition, oxytocin-expressing neurons in the PVN project to the VTA (Melis et al., 2007). Oxytocin activates VTA neurons in both mice and humans, influencing the processing of socially relevant cues (Gregory et al., 2015; Groppe et al., 2013; Tang et al., 2014) and oxytocin receptor blockade in the VTA prevents social attachment in rodents (Pedersen et al., 1994). Given that social stimulation can be particularly rewarding and triggers synaptic potentiation in VTA DA neurons of birds (Huang and Hessler, 2008), it was considered whether direct social interaction evokes long-term potentiation (LTP) of synaptic inputs to VTA DA neurons (FIGS. 20A-20C). To this end, AMPAR/NMDAR ratios were recorded of glutamatergic excitatory postsynaptic currents (EPSCs) in MRD and MHFD offspring 24 hours following a 10 min reciprocal interaction with either a stranger or a familiar mouse (FIG. 5A). In control MRD mice, social interaction with a stranger, but not a familiar mouse, triggered LTP in VTA DA neurons, as determined by an increase in AMPAR/NMDAR ratios (FIGS. 5B and 5D).
Recordings were performed as previously described (Ungless et al., 2001; Zhu et al., 2011) and the investigators were kept blind to treatment conditions. Briefly, mice were anesthetized with a mixture of ketamine (100 mg/kg), xylazine (10 mg/kg) and acepromazine (3 mg/kg). Horizontal slices (225-300 μm thick) containing the VTA were cut from the brains of C57BL/6J mice. Mice were transcardially perfused with an ice-cold, oxygenated solution containing (in mM) NaCl, 87; NaHCO3, 25; KCl, 2.5; NaH2PO4, 1.25; MgCl2, 7; CaCl2, 0.5; dextrose, 25; sucrose, 75. […] Data were obtained with a MultiClamp 700B amplifier, digitized at 20 kHz with a Digidata 1440A, recorded by Clampex 10 and analyzed with Clampfit 10 software (Molecular Devices). […] After establishing a gigaohm seal (>2 GΩ) and recording stable spontaneous firing in cell-attached, voltage clamp mode (−70 mV holding potential), cell phenotype was determined by measuring the width of the action potential and the presence of an Ih current. AMPAR/NMDAR ratios were calculated as previously described (Ungless et al., 2001). […]

Row | Compound | contact duration in reciprocal social interaction test (MHFD offspring; intranasal oxytocin) | interaction frequency in reciprocal social interaction test (MHFD offspring; intranasal oxytocin) | reciprocal social interaction (MHFD offspring; intranasal oxytocin approximately 200 μg/kg, 30 min prior) | reciprocal social interaction (MHFD offspring; intranasal oxytocin approximately 200 μg/kg, 30 min prior, listed as Oxytocin) | social interaction-induced LTP in the VTA (VTA DA neurons; intranasal oxytocin alone, without social interaction) | social interaction-induced LTP in the VTA (VTA DA neurons; intranasal oxytocin approximately 200 μg/kg combined with stranger social interaction) | reciprocal social interaction (MHFD offspring; bacteria in drinking water) | reciprocal social interaction (MHFD offspring; bacteria in drinking water, listed as live L. reuteri) | stranger interaction-evoked LTP in the VTA (AMPAR/NMDAR ratio) (VTA DA neurons) | stranger interaction-evoked LTP in the VTA (AMPAR/NMDAR ratio) (VTA DA neurons; listed as live L. reuteri)
1 | CC[C@H](C)[C@@H]1NC(=O)[C@H](Cc2ccc(O)cc2)NC(=O)[C@@H](N)CSSC[C@@H](C(=O)N2CCC[C@H]2C(=O)N[C@@H](CC(C)C)C(=O)NCC(N)=O)NC(=O)[C@H](CC(N)=O)NC(=O)[C@H](CCC(N)=O)NC1=O [oxytocin] | improved MHFD offspring contact duration | improved | improved reciprocal social interaction | restored reciprocal social interaction | failed to rescue | restored LTP; also recorded: rescued LTP | – | – | – | –
2 | Lactobacillus reuteri MM4-1A (ATCC-PTA-6475) [L. reuteri] | – | – | – | – | – | – | rescued | restored reciprocal social interaction | rescued stranger interaction-induced LTP | restored stranger interaction-evoked LTP
